Test [1] deals with C2C12. The test can be described thus: Induction of BMP2-induced osteoblast differentiation in mouse C2C12 cells preincubated with cells after 3 days by […] assay. In kind it is functional, cell-based.
In test [2] the target is RAC-alpha serine/threonine-protein kinase (Mus musculus) (UniProt P31750). The test can be described thus: Inhibition of RANKL-induced AKT phosphorylation in mouse BMDM cells assessed as ratio of phosphorylated AKT to AKT at 10 uM preincubated for 5 mins followed RANKL/M-CSF addition for 5 mins by Western blot analysis (reference value: 2.1). In kind it is cell-based.
Sequence of RAC-alpha serine/threonine-protein kinase (Mus musculus) (P31750 whole entry): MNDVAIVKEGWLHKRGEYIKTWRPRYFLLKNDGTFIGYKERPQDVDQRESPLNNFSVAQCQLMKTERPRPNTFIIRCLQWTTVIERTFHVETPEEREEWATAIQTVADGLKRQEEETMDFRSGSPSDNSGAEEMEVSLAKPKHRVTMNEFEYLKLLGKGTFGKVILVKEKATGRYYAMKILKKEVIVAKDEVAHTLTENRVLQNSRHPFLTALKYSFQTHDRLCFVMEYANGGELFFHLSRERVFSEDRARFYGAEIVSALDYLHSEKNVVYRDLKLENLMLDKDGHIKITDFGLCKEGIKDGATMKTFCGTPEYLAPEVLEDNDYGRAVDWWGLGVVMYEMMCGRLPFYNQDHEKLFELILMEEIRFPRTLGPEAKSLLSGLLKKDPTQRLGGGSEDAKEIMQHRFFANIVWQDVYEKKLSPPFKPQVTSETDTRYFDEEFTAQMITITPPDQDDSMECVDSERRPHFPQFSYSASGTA
For test [3], the system named is Osteoclast. The test can be described thus: Inhibition of RANKL-induced mouse BMDM cell differentiation assessed as reduction in TRAP-positive multi-nucleated osteoclast cells preincubated for 5 mins followed by RANKL/M-CSF addition measured after 4 days by light microscopic analysis. In kind it is functional, cell-based.
Test [4] deals with C2C12. Put plainly: Increase in BMP2-induced BMP2 mRNA expression in mouse C2C12 cells at 10 uM measured on day 3 by real-time PCR analysis. In kind it is functional, cell-based.
Test [5] relates to BMDM. The test can be described thus: Inhibition of RANKL-induced mouse BMDM cell differentiation assessed as reduction in TRAP activity at 0.1 to 30 uM using p-nitrophenyl phosphate as substrate preincubated for 5 mins followed by RANKL/M-CSF addition measured after 4 days. In kind it is functional, cell-based.
Test [6] has as its target T1, SMAD1/5/9 (Mus musculus) (UniProt P70340+P97454+Q9JIW5). The test can be described thus: Activation of Smad1/5/8 in mouse C2C12 cells assessed as increase in BMP2-stimulated […] mRNA expression at 10 uM preincubated with cells followed by BMP2 addition after 3 days by real-time PCR analysis. In kind it is cell-based.
Test [7] concerns the target Mitogen-activated protein kinase 1 (Mus musculus) (UniProt P63085). The test can be described thus: Inhibition of RANKL-induced ERK2 phosphorylation in mouse BMDM cells assessed as ratio of phosphorylated ERK2 to ERK2 at 10 uM preincubated for 5 mins followed RANKL/M-CSF addition for 5 mins by Western blot analysis (reference value: 2.6). In kind it is cell-based.
The subject of test [8] is BMDM. The test can be described thus: Inhibition of RANKL-induced OSCAR mRNA expression in mouse BMDM cells at 10 uM preincubated with cells followed by RANKL addition measured after 2 days by real-time PCR analysis. In kind it is functional, cell-based.
For test [9], the system named is BMDM. The test can be described thus: Inhibition of RANKL-induced TRAP mRNA expression in mouse BMDM cells at 10 uM preincubated with cells followed by RANKL addition measured after 2 days by real-time PCR analysis. In kind it is functional, cell-based.
In test [10] the test system is C2C12. Put plainly: Increase in BMP2-induced BMP7 mRNA expression in mouse C2C12 cells at 10 uM measured on day 3 by real-time PCR analysis. In kind it is functional, cell-based.
Test [11] addresses T1, SMAD1/5/9 (Mus musculus). Put plainly: Increase in BMP2-induced Smad1/5/8 nuclear translocation in mouse C2C12 cells assessed as ratio of Smad1/5/8 to actin in cytosol fraction at 10 uM preincubated with cells followed by BMP2 addition for 4 hrs by Western blot analysis (reference value: 0.4). In kind it is cell-based.
Test [12] has as its system Mus musculus. The test can be described thus: Osteogenic activity in ICR mouse calvarial bone implanted with collagen sponges containing 10 mM compound incubated for 2 weeks assessed as increase in bone volume relative to control. In kind it is functional.
The test system of test [13] is BMDM. Put plainly: Inhibition of RANKL-induced mouse BMDM cell differentiation assessed as TRAP-positive MNCs at 0.1 to 30 uM preincubated for 5 mins followed by RANKL/M-CSF addition measured after 4 days by TRAP-staining based assay. In kind it is functional.
For test [14], the system named is C2C12. Put plainly: Increase in BMP2-induced BMP6 mRNA expression in mouse C2C12 cells at 10 uM measured on day 3 by real-time PCR analysis. In kind it is functional, cell-based.

Active and inactive are the calls of the source. No cut-off for these calls is given here.

Sequence of Mitogen-activated protein kinase 1 (Mus musculus) (P63085 whole entry): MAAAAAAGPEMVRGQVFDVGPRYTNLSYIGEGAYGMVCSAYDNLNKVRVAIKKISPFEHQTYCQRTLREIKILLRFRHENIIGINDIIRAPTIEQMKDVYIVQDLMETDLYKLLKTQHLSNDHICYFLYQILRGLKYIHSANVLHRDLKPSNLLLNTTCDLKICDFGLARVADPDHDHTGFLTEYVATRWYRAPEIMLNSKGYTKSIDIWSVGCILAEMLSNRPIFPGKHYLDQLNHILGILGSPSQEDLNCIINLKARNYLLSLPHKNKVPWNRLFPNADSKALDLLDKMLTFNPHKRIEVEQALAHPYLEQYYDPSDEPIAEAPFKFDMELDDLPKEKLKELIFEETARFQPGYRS

In the case of `COc1cccc(OC)c1C(=O)c1c(O)cc(C)c(OC)c1C1=C(c2c(OC)cccc2OC)c2c(O)cc(C)c(OC)c2C1=O`, the Activity entry in test [1] is “Dose-dependent effect”. The fold change (FC) in test [2] was 2; in test [7], 2.8; in test [11] it was 0.1; in [12], 2.7. For the same molecule, the inhibition result in [3] is “Dose-dependent effect”. For the same molecule, the outcome in test [4], in [6], in [10] and in test [14] was Active. Moreover, the inhibition result in test [5], in [8], in [9] and in test [13] was “Active” in each case.

The record behind these values is ChEMBL document CHEMBL3861969, “Acredinone C and the Effect of Acredinones on Osteoclastogenic and Osteoblastogenic Activity” (J Nat Prod, 2016).
